Laboratory results reported in PMC9674596, “Origin of acetylcholine antagonism in ELIC, a bacterial pentameric ligand-gated ion channel” (Communications Biology, 2022).

Experiments:
Assay type in all cases: cell-based, Erwinia chrysanthemi
wild-type ELIC = target: T1, wild-type ELIC (Dickeya chrysanthemi, UniProt P0C7B7, INS163G); assay: Two-electrode voltage clamp, whole-cell currents of wild-type ELIC expressed in Xenopus laevis oocytes; details: for IC50: ACh IC50, WT ELIC
T1 construct: expressed in transfected cells; host or cells: Xenopus laevis oocytes injected with cRNA from ELIC-pTLN
Protocol: (§1) Stage V-VI Xenopus laevis oocytes were isolated[72] and deflocculated enzymatically in ND96 buffer without Ca^2+ (96 mM NaCl, 2 mM KCl, 1 mM MgCl2, 2 mM pyruvate, 5 mM HEPES, pH 7.4), but supplemented with 1 mg/mL collagenase B and 1 mg/mL trypsin inhibitor, for 2 h at room temperature under constant stirring. The deflocculation buffer was then gradually removed by washing the oocytes in ND96 buffer (96 mM NaCl, 2 mM KCl, 1 mM MgCl2, 1 mM CaCl2, 2 mM pyruvate, 5 mM HEPES, pH 7.4) for several iterations. The oocytes were then allowed to stir for an additional hour at room temperature under constant stirring with the buffer being periodically replaced until clear. To obtain optimal receptor expression, individually selected and healthy oocytes were injected with 0.2 ng cRNA for wild-type ELIC and 5 ng cRNA for mutants. Subsequently, oocytes were incubated for one day at 16 °C in ND96^+ buffer (96 mM NaCl, 2 mM KCl, 1 mM MgCl2, 1 mM CaCl2, 2 mM pyruvate, and 5 mM HEPES at pH 7.6). After expression, injected oocytes were placed in a RC-1Z oocyte chamber (Harvard Apparatus; Hamden, CT) containing buffer (pH 7.4) composed of 150 mM NaCl, 0.5 mM BaCl2, 10 mM HEPES, and 1 mM dithiothreitol or 1 µM atropine if cysteamine, or ACh, was used in the experiment, respectively. The presence of the reducing agent, dithiothreitol, ensures that the sulfhydryl group of cysteamine remains reduced.
(§2) Once in the oocyte chamber, whole-cell currents were recorded using a two-electrode voltage-clamp apparatus (OC-725C oocyte clamp; Harvard Apparatus), with a buffer flow rate of 5–10 mL min^−1. Currents in response to various additions of cysteamine and/or ACh, were measured with the transmembrane voltage clamped at −60 mV. Dose response curves for each wild-type and mutant ELIC were acquired from at least five oocytes in two different batches. […]

ELIC A75D = target: T2, ELIC A75D (Dickeya chrysanthemi, UniProt P0C7B7, A75D/INS163G); assay: Two-electrode voltage clamp, A75D mutant ELIC expressed in Xenopus laevis oocytes
T2 construct: expressed in transfected cells; host or cells: Xenopus laevis oocytes injected with cRNA from ELIC-pTLN

ELIC F133W = ELIC F133W (Dickeya chrysanthemi, UniProt P0C7B7, F133W); assay: cell-based
Protocol: as §1, with “After expression, injected oocytes were placed in a RC-1Z oocyte chamber (Harvard Apparatus; Hamden, CT) containing buffer (pH 7.4) composed of 150 mM NaCl, 0.5 mM BaCl2, 10 mM HEPES, and 1 mM dithiothreitol or 1 µM atropine if cysteamine, or ACh, was used in the experiment, respectively. The presence of the reducing agent, dithiothreitol, ensures that the sulfhydryl group of cysteamine remains reduced.” left out
as §2, with “mV.” for “mV. Dose response curves for each wild-type and mutant ELIC were acquired from at least five oocytes in two different batches.”

ELIC Y38W = ELIC Y38W (Dickeya chrysanthemi, UniProt P0C7B7, Y38W); assay: Two-electrode voltage clamp, Y38W mutant ELIC expressed in Xenopus laevis oocytes
Protocol: as §1, with “After expression, injected oocytes were placed in a RC-1Z oocyte chamber (Harvard Apparatus; Hamden, CT) containing buffer (pH 7.4) composed of 150 mM NaCl, 0.5 mM BaCl2, 10 mM HEPES, and 1 mM dithiothreitol or 1 µM atropine if cysteamine, or ACh, was used in the experiment, respectively. The presence of the reducing agent, dithiothreitol, ensures that the sulfhydryl group of cysteamine remains reduced.” left out
as §2, with “mV.” for “mV. Dose response curves for each wild-type and mutant ELIC were acquired from at least five oocytes in two different batches.”

| Compound | IC50 (wild-type ELIC; inhibition of GABA-activated current, GABA at its EC50 (2.7 mM)) [mM] | IC50 (wild-type ELIC; inhibition of cysteamine-activated current, cysteamine at its EC50 (0.6 mM)) [mM] | IC50 (ELIC A75D) [mM] | IC50 (ELIC F133W) [mM] | IC50 (ELIC Y38W) [mM] | EC50 (wild-type ELIC) [mM] |
| --- | --- | --- | --- | --- | --- | --- |
| CC(=O)OCC[N+](C)(C)C [ACh, acetylcholine] | 1.1 ± 0.2 | 1 ± 0.2 | 7 ± 2 | 8 ± 2 | 0.4 ± 0.1 | – |
| NCCCC(=O)O [GABA, γ-aminobutyric acid] | – | – | – | – | – | 2.7 ± 0.3 |
